Here are results for five compounds from patent US9000003B2, “Anti-folate antimalarials with dual-binding modes and their preparation” (priority 2011, dated 2015).

Where a name gives a salt, the structure may show the parent alone. Read-outs that look alike come from different tables or passages of the source. Bounds are passed on as bounds.

Common to all, as to format: cell-based, Plasmodium falciparum
Test [1] deals with P. falciparum V1/S (quadruple mutant, N51I+C59R+S108N+I164L). Description: In vitro anti-Plasmodial activity against V1/S. The procedure: (§1) It is an object of the invention to provide anti-folate antimalarials with dual-binding modes, and pharmaceutically acceptable salts thereof, for substantially inhibiting dihydrofolate reductase enzymes. Enzymes, comprising dihydrofolate reductase of Plasmodium falciparum, wild-type, double (C59R+S108N), triple (N51+C59R+S108N, C59R+S108N+1164L), and quadruple (N51+C59R+S108N+I164L) mutants were prepared. The inhibition constants (Ki) of the enzymes with the invented compounds were investigated using a standard method. In vitro antimalarial activity (IC50) with malaria parasites carrying Tm4/8.2 (wild type), K1CB1 (double mutant, C59R+S108N), W2 (triple mutant N51I+C59R+S 108N), Cs1-2 (triple mutant, C59R+S108N+I164L), and V1/S (quadruple mutant, N51I+C59R+S108N+I164L) were also investigated using a standard method.

The test system of test [2] is P. falciparum Cs1-2 (triple mutant, C59R+S108N+I164L). As to the kind of experiment: In vitro anti-Plasmodial activity against Cs1-2. As for the experimental part: as §1
Test [3] relates to P. falciparum K1CB1 (double mutant, C59R+S108N). As to the kind of experiment: In vitro anti-Plasmodial activity against K1CB1. As for the experimental part:
as §1

In test [4] the test system is P. falciparum W2 (triple mutant N51I+C59R+S108N). As to the kind of experiment: In vitro anti-Plasmodial activity against W2. As for the experimental part: as §1
Test [5] concerns P. falciparum Tm4/8.2 (wild type). Description: In vitro anti-Plasmodial activity against Tm4/8.2. The conditions noted are these: P. falciparum Tm4/8.2, wild type DHFR. As for the experimental part:
as §1

Where [6] appears, read: Plasmodium falciparum, read-out: IC50 V1/S, P. falciparum V1/S, quadruple mutant.
Setting [7] is: Plasmodium falciparum, read-out: IC50 Cs1-2, P. falciparum Cs1-2, triple mutant.
The mark [8] stands for this setting: Plasmodium falciparum, read-out: IC50 K1CB1, P. falciparum K1CB1, double mutant.
Setting [9] is: Plasmodium falciparum, W2, read-out: IC50 W2, P. falciparum W2, triple mutant.

On to `CCc1nc(N)nc(N)c1OCCCOc1cccc(-c2c(N)nc(N)nc2CC)c1` [Compound A, 5-(3′-(3″-(2,4-diamino-6-ethylpyrimidin-5-yloxy)propoxy)phenyl)-6-ethylpyrimidine-2,4-diamine], for which the IC50 in test [1] (setting [6]) amounted to 1720 ± 690 nM; in test [2] (setting [7]), 510 ± 80 nM; in test [3] (setting [8]) it was 220 ± 60 nM; in test [4] (setting [9]), 250 ± 80 nM; in test [5] (Plasmodium falciparum), 290 ± 50 nM.
In the case of `CCc1nc(N)nc(N)c1OCCCOc1ccc(-c2c(N)nc(N)nc2CC)cc1` [Compound B, 5-(4′-(3″-(2,4-diamino-6-ethylpyrimidin-5-yloxy)propoxy)phenyl)-6-ethylpyrimidine-2,4-diamine], the IC50 in test [1] (read-out: IC50 V1/S, P. falciparum V1/S, quadruple mutant) is > 1000 nM; in test [2] (read-out: IC50 Cs1-2, P. falciparum Cs1-2, triple mutant) it was > 1000 nM; in test [3] (setting [8]), > 1000 nM; in test [4] (read-out: IC50 W2, P. falciparum W2, triple mutant), > 1000 nM; in test [5] (Plasmodium falciparum), 69 ± 10 nM.
In the case of `CCc1nc(N)nc(N)c1OCCCOc1ccc(-c2c(N)nc(N)nc2CC)cc1` [Compound D, 5-(4′-(3″-(2,4-diamino-6-ethylpyrimidin-5-yloxy)propoxy)phenyl)-6-ethylpyrimidine-2,4-diamine dihydrochloride], the IC50 in test [1] (read-out: IC50 V1/S, P. falciparum V1/S, quadruple mutant, dihydrochloride) was 4400 ± 710 nM; in test [2] (read-out: IC50 Cs1-2, P. falciparum Cs1-2, triple mutant, dihydrochloride) it was 3950 ± 360 nM; in test [3] (read-out: IC50 K1CB1, P. falciparum K1CB1, double mutant, dihydrochloride) it was 1840 ± 310 nM; in test [4] (read-out: IC50 W2, P. falciparum W2, triple mutant, dihydrochloride) it was 2380 ± 110 nM; in test [5] (dihydrochloride), 63 ± 10 nM.
As for `CCc1nc(N)nc(N)c1-c1ccc(OCCCOc2ccc(-c3c(N)nc(N)nc3CC)cc2)cc1` [Compound E, 5-(4′-3″-(4″′-(2,4-diamino-6-ethylpyrimidin-5-yl)phenoxy)propoxy)phenyl)-6-ethylpyrimidine-2,4-diamine dihydrochloride], the IC50 in test [1] (setting [6]) worked out at 330 ± 20 nM; in test [2] (setting [7]), 310 ± 20 nM; in test [3] (setting [8]), 330 ± 40 nM; in test [4] (setting [9]), 280 ± 20 nM; in test [5] (Plasmodium falciparum), 35 nM.
In the case of `CCc1nc(N)nc(N)c1-c1ccc(Cl)cc1` [Pyr, Pyrimethamine, reference compound], the IC50 in test [1] (setting [6]) is > 100000 nM; in test [2] (setting [7]) it was 37000 ± 5980 nM; in test [3] (setting [8]) it was 27000 ± 3330 nM; in test [4] (setting [9]), 39000 ± 5420 nM; in test [5] (Plasmodium falciparum), 66 ± 30 nM.
